Measured values taken from US20060166996A1, “Phthalazine derivatives as phosphodiesterase 4 inhibitors” (Zambon Group S.P.A., priority 2002, published 2006).
In brackets after ≈: the same amount, converted by molar mass.

Key:
[1] = Solubility test by HPLC in PBS pH 7.4; format: physicochemical; conditions: for solubility kinetic: PBS (phosphate buffer saline), aqueous buffer, kinetic from dmso stock
Description: HPLC method used to test the solubility.
Solubility test was performed by HPLC analysis (column 4.6×15 mm) water/0.1% TFA —CH3CN/0.06% TFA gradient) against standard.
A […] solution of the substance dissolved in DMSO was prepared.
In order to prepare the sample 190 μl of PBS (Phosphate Buffer Saline, pH 7.4) were added to 10 μl of the above solution; instead (while) in order to prepare the standard 190 μl of DMSO to other 10 μl of solution were added.

PDE 4 enzyme = test system: T1, PDE 4 enzyme; experiment: PDE 4 enzyme inhibition (SPA); format: biochemical; conditions: for % at 10^−7: PDE 4 from U937 cell line
T1 construct: % at 10^−7; other: at 10^−7; PDE 4 from U937 cell line; other: PDE 4 isolated from U937 cell line; SPA with 3H-cAMP
Description: a) PDE 4 Enzyme Purification
PDE 4 enzyme was isolated from U937 cell line according to the method of Nielson et al. (J. Allergy Clin. Immunol. 1990, vol. 86, pages 801-807) partially modified for the FPLC technique (Fast Protein Liquid Chromatography).
U-937cell line (Istituto Zooprofilattico Sperimentale, Brescia, Italy) was maintained in RPMI 1640, with 10% foetal calf serum and 2 mM glutamine, at a cell density between 1×10^6 and 8×10^6 cells per ml in an incubator at 37° C. with 5% CO2.
U937 suspension was homogenised in a buffer containing 10 mM TRIS (tri-(hydroxymethyl)-aminomethane), 5 mM MgCl2, 4 mM EGTA (ethyleneglycol-bis-(β-aminoethylether)-N,N,N′N′-tetra-acetic acid), 5 mM […]-mercaptoethanol, 1 μM leupeptin, 1 μM pepstatin, 1% TRITON x-100, and 100 μM phenylmethyl sulfonyl fluoride (PMSF) at pH 7.8.
The homogenate was centrifuged and the supernatant was used for the purification of the PDE 4 enzyme; it was seeded on a column connected to a biologic chromatography system (FPLC, BIO RAD).
PDE 4 enzyme was eluted with a linear gradient, from 0.05 M to 1 M of sodium acetate, and elution fractions were collected for PDE4 activity assay.
The fractions containing PDE4 activity were collected and, after an overnight dialysis against water to remove sodium acetate, were concentrated to 30% volume with an Amicon filtration system (using YM10 membrane filter).
Ethylene glycol (30% v/v) was added and the sample was stored at −20° C. in a single aliquot until the use.
PDE 4 activity assay was performed using Scintillation Proximity Assay (SPA) Amershan kit consisting of tracer ^3H-cAMP, PDE assay buffer (10×solution: 500 mM TRIS/HCl pH 7.5, 83 mM MgCl2 and 17 mM EGTA) and Yttrium SPA PDE beads (containing 18 mM zinc sulphate).
The radioactivity of the beads was measured using a scintillation counter (Packard model MINAXI β TRI-CARB 4000 SERIES).
The IC50 values were calculated from concentration-inhibition curves by non linear regression analysis using the program ORIGIN 3.5 (MICROCAL SOFTWARE INC.) and each fitting was the mean±SEM of 3 experiments using different PDE 4 preparations.

[2] = PBS pH 7.4, HPLC, compounds of WO 00/05218
[3] = PBS pH 7.4, HPLC against standard, compounds of formula I

Molecule | Sol. [1, 2] | % at 10^−7 (PDE 4 enzyme) | solubility kinetic [1, 3] | Sol. [1, 3] | IC50 (PDE 4 enzyme; PDE 4 isolated from U937 cell line, SPA with 3H-cAMP)
3-[4-(3,5-dichloro-pyridin-4-ylmethyl)-7-methoxy-phthalazin-1-yl]-5-methanesulfonylamino-benzoic Acid [Compound 6] | <1 µM | – | – | – | –
5-[4-(3,5-dichloro-pyridin-4-ylmethyl)-7-methoxy-phthalazin-1-yl]-2-methoxy-benzoic Acid [Compound 4] | 37 µM | – | – | – | –
COc1ccc2c(Cc3c(Cl)cncc3Cl)nnc(-c3ccc(C(=O)O)cc3)c2c1 [Compound 1, 4-[4-(3,5-dichloro-pyridin-4-ylmethyl)-7-methoxy-phthalazin-1-yl]-benzoic Acid] | – | 25% at 10^−7 | 218 µg/mL (≈ 495 µM) | 495.45 µM | –
COc1ccc2c(Cc3c(Cl)cncc3Cl)nnc(-c3cc(C(=O)O)cc([N+](=O)[O-])c3)c2c1 [Compound 3, 3-[4-(3,5-dichloro-pyridin-4-ylmethyl)-7-methoxy-phthalazin-1-yl]-5-nitro-benzoic Acid] | – | 47% at 10^−7 | 298 µg/mL (≈ 614 µM) | 614.43 µM | –
COc1ccc2c(Cc3c(Cl)cncc3Cl)nnc(-c3ccc(OC)c(C(=O)O)c3)c2c1 [Compound 4, 5-[4-(3,5-dichloro-pyridin-4-ylmethyl)-7-methoxy-phthalazin-1-yl]-2-methoxy-benzoic Acid] | – | – | 226 µg/mL (≈ 481 µM) | 480.85 µM | –
COc1ccc2c(Cc3c(Cl)cncc3Cl)nnc(-c3cc(C(=O)O)ccc3OC)c2c1 [Compound 5, 3-[4-(3,5-dichloro-pyridin-4-ylmethyl)-7-methoxy-phthalazin-1-yl]-4-methoxy-benzoic Acid] | – | – | 230 µg/mL (≈ 489 µM) | 489.36 µM | 91.3 nM
COc1ccc2c(Cc3c(Cl)cncc3Cl)nnc(-c3cc(NS(C)(=O)=O)cc(C(=O)O)c3)c2c1 [Compound 6, 3-[4-(3,5-dichloro-pyridin-4-ylmethyl)-7-methoxy-phthalazin-1-yl]-5-methanesulfonylamino-benzoic Acid] | – | – | 271 µg/mL (≈ 508 µM) | 508.44 µM | –
COc1cc(C(=O)O)cc(-c2nnc(Cc3c(Cl)cncc3Cl)c3ccc(OC)cc23)c1 [Compound 7, 3-[4-(3,5-dichloro-pyridin-4-ylmethyl)-7-methoxy-phthalazin-1-yl]-5-methoxy-benzoic Acid] | – | – | 235 µg/mL (≈ 500 µM) | 500.00 µM | –
COc1ccc2c(Cc3c(Cl)cncc3Cl)nnc(-c3nc(C(=O)O)co3)c2c1 [Compound 9, 2-[4-(3,5-dichloro-pyridin-4-ylmethyl)-7-methoxy-phthalazin-1-yl]-oxazole-4-carboxylic Acid] | – | 14% at 10^−7 | 202 µg/mL (≈ 468 µM) | 468.68 µM | –
